Data taken from patent US8288111B2 (Abbott Laboratories, priority 2007, dated 2012).

Experiments:
[1] = test system: anti-CsA monoclonal antibody; test: Abbott TDx Monoclonal CsA immunoassay (FPIA) cross-reactivity; type: binding, mouse; conditions: 200 ng/mL cyclosporine; metabolite 250 ng/mL
Procedure: (§1) Antibody. The anti-CsA monoclonal antibody used in the […]® assay is immobilized on Goat Anti-Mouse (GAM) antibody coated magnetic microparticles. The same anti-CsA antibody is used in soluble form in the Abbott TDx and AxSYM® assays (Abbott Laboratories, Abbott Park, Ill.). Soluble mouse anti-CsA antibody is added directly to GAM microparticles and non-covalent binding occurs by antibody-mediated binding. GAM antibody is passively bound to magnetic polystyrene microparticles and then treated with a water-soluble carbodiimide to fix the antibody on the particle. GAM particles can be prepared using ordinary skill in the art.
(§2) FPIA test methods. Abbott TDx Monoclonal and AxSYM® immunoassays were measured on specimens and calibrators using procedures described in the package inserts. Specimens were extracted with a combination of saponin, organic solvent and Zinc sulfate and precipitated protein was centrifuged down. The clear supernatant was tested using assay reagents (Tracer, Antibody and Assay Diluent). However, in Example 4, the different extraction (pretreatment) methods of TDx and AxSYM® were employed, but all results were generated on […]®.

cyclosporine antibody = test: Dade RxLFlex cyclosporine assay cross-reactivity; type: binding; conditions: 200 ng/mL cyclosporine; metabolite 1000 ng/mL
[2] = test system: anti-CsA monoclonal antibody; test: Abbott AxSYM CsA immunoassay (FPIA) cross-reactivity; type: binding, mouse; conditions: 200 ng/mL cyclosporine; metabolite 250 ng/mL
Procedure: as §1, §2
Cross-reactivities for AM9 (500 ng/mL) were 12.6% for AxSYM®, 25% for CEDIA, and 6% for EMIT.

[3] = times greater than cyclosporine CsA; cited from earlier work

Compound | Abbott TDx cross-reactivity [1] | Dade RxLFlex cross-reactivity (cyclosporine antibody) | Abbott AxSYM cross-reactivity [2] | in vivo potency relative to cyclosporine CsA [3]
CC[C@@H]1NC(=O)[C@H]([C@H](O)[C@H](C)C/C=C/CO)N(C)C(=O)[C@H](C(C)C)N(C)C(=O)[C@H](CC(C)C)N(C)C(=O)[C@H](CC(C)(C)O)N(C)C(=O)[C@@H](C)NC(=O)[C@H](C)NC(=O)[C@H](CC(C)C)N(C)C(=O)[C@H](C(C)C)NC(=O)[C@H](CC(C)C)N(C)C(=O)CN(C)C1=O [AM19] | not statistically significant | 2-3% | not statistically significant | 
C=CC[C@@H]1/C=C(\C)C[C@H](C)C[C@H](OC)[C@H]2O[C@@](O)(C(=O)C(=O)N3CCCC[C@H]3C(=O)O[C@H](/C(C)=C/[C@@H]3CC[C@@H](O)[C@H](OC)C3)[C@H](C)[C@@H](O)CC1=O)[C@H](C)C[C@@H]2OC [Tacrolimus, tacrolimus] |  |  |  | 50-100 times
